# Assay results as given in patent US12054498B2, “Heteroaromatic macrocyclic ether chemotherapeutic agents” (Nuvalent, Inc., priority 2020, dated 2024).
# Tests used:
# ALK-wt = molecular target: T1, ALK-wt (Homo sapiens, UniProt Q9UM73); experiment: Biochemical kinase assay, ALK-wt kinase domain; settings: apparent inhibitory constant, Morrison equation; ATP 2 mM in substrate solution; read-out: ALK-wt Ki^app
# T1 construct: purchased Carna 08-518
# How it was run: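 Apparent Ki values come from fitting initial reaction rates against inhibitor concentration to the Morrison equation. Rates were taken from the linear phase of fluorogenic substrate phosphorylation (AQT0101 for ALK and ROS1, AQT0104 for TRKA; 26 μM in substrate solution with 2 mM ATP), monitored at 485 nm over 120 min at 30° C.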
# ALK L1196M/G1202R = molecular target: T2, ALK L1196M/G1202R (Homo sapiens, UniProt Q9UM73, G1202R/L1196M); experiment: Biochemical kinase assay, ALK L1196M/G1202R kinase domain; settings: apparent inhibitory constant, Morrison equation; ATP 2 mM in substrate solution; read-out: ALK-L1196M-G1202R Ki^app
# T2 construct: purchased SignalChem A19-12NG
# T2 sequence (Q9UM73 1116-1392 L1196M/G1202R limits assumed): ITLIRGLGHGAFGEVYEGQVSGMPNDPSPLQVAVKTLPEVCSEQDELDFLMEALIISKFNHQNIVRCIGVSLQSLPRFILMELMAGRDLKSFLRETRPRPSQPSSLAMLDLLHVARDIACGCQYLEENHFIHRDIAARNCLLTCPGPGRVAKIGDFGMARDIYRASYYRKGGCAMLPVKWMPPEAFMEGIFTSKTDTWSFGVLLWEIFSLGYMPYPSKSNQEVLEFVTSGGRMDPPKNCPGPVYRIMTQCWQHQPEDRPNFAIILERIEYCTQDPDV
# How it was run: (§1)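 Kinase domains (in kinase solution: ROS1-G2032R 0.5 nM, ROS1-wt 0.6 nM, TRKA 1 nM, ALK L1196M/G1202R 3 nM) were mixed with compound and a substrate solution of 2 mM ATP plus 26 μM fluorogenic AQT0101 (ALK, ROS1) or AQT0104 (TRKA) in HEPES pH 7.5/MgCl2. Fluorescence was followed for 120 min at 30° C; Ki^app was obtained by Morrison fit of initial rates.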
# ROS1-wt = molecular target: T3, ROS1-wt (Homo sapiens, UniProt P08922); experiment: Biochemical kinase assay, ROS1-wt kinase domain; settings: apparent inhibitory constant, Morrison equation; ATP 2 mM in substrate solution; read-out: ROS1-wt Ki^app
# T3 construct: purchased Carna 08-163
# T3 sequence (P08922 1945-2222 limits assumed): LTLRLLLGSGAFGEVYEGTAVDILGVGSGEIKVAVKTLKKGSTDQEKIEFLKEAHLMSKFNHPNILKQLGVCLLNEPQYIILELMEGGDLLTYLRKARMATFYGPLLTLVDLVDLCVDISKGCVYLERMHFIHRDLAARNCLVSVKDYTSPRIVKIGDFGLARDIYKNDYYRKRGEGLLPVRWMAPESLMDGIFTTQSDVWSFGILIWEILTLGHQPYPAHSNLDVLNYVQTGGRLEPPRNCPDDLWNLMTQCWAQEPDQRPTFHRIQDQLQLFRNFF
# How it was run: (§2)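 Compounds, as 100-fold DMSO stocks, were dispensed first, then substrate mix was added (ATP 2 mM, AQT0101 26 μM, in 50 mM HEPES pH 7.5/10 mM MgCl2). Reactions ran at 30 °C with fluorescence logged every 2 min over 120 min. Apparent inhibition constants came from fitting rates to Morrison's tight-binding equation.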
# ROS1-G2032R = molecular target: T4, ROS1-G2032R (Homo sapiens, UniProt P08922, G2032R); experiment: Biochemical kinase assay, ROS1-G2032R kinase domain; settings: apparent inhibitory constant, Morrison equation; ATP 2 mM in substrate solution; read-out: ROS1-G2032R Ki^app
# T4 construct: purchased SignalChem R14-12BG
# T4 sequence (P08922 1945-2222 G2032R limits assumed): as the sequence (P08922 1945-2222 limits assumed) above, with G88R counted along it
# How it was run: as §2
# TRKA-wt = molecular target: T5, TRKA-wt (Homo sapiens, UniProt P04629); experiment: Biochemical kinase assay, TRKA-wt kinase domain; settings: apparent inhibitory constant, Morrison equation; ATP 2 mM in substrate solution; read-out: TRKA-wt Ki^app
# T5 construct: or TRKA-wt (1 nM, BPS Bio, 40280) kinase domains in buffer; purchased BPS Bio 40280
# T5 sequence (P04629 510-781 limits assumed): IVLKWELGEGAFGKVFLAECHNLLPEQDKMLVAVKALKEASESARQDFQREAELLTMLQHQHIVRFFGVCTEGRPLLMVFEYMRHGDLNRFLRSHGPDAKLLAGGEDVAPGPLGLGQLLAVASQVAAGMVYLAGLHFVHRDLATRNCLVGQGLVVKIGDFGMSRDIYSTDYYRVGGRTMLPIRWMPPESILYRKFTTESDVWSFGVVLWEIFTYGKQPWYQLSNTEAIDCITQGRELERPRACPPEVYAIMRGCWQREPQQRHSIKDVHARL
# How it was run: as §1
# [1] = molecular target: T6, Ba/F3 cells CD74-ROS1 wild-type (wt) (Homo sapiens, UniProt P08922); experiment: Ba/F3 cell proliferation assay, CD74-ROS1 wild-type; type: cell-based; settings: 72 hours, CellTiter-Glo
# T6 construct: fusion of the C-terminus of ROS1 with the N-terminus of various partner proteins; host or cells: Ba/F3 (RIKEN), retroviral pMSCV-puro; the other entry of the earlier key: CD74 (P04233, HLA class II histocompatibility antigen gamma chain)
# T6 sequence (P08922 1883-2347 limits assumed): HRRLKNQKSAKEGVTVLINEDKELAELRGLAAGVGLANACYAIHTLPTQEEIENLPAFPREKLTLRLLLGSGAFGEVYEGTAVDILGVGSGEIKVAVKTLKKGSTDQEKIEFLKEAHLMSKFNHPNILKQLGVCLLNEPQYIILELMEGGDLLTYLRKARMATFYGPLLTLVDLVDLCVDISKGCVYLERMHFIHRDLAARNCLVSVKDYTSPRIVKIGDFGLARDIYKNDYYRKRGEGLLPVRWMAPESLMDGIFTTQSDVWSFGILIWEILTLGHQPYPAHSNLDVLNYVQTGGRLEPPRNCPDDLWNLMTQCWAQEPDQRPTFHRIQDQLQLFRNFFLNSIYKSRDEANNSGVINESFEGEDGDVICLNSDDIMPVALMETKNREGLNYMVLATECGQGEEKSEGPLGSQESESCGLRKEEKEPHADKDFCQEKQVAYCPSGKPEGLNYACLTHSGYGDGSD
# How it was run: (§3)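 Viability read by CellTiter-Glo luminescence after 72 h exposure to 3-fold serial compound dilutions, four-parameter logistic fitting giving IC50.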
# [2] = molecular target: T7, Ba/F3 cells CD74-ROS1 G2032R (Homo sapiens, UniProt P08922, G2032R); experiment: Ba/F3 cell proliferation assay, CD74-ROS1 G2032R; type: cell-based; settings: 72 hours, CellTiter-Glo
# T7 construct: fusion of the C-terminus of ROS1 with the N-terminus of various partner proteins; host or cells: Ba/F3 (RIKEN), retroviral pMSCV-puro; the other entry of the earlier key: CD74 (P04233, HLA class II histocompatibility antigen gamma chain)
# T7 sequence (P08922 1883-2347 G2032R limits assumed): as the sequence (P08922 1883-2347 limits assumed) above, with G150R counted along it
# How it was run: as §3
# [3] = molecular target: T8, Ba/F3 cells EML4-ALK wt (variant 1) (Homo sapiens, UniProt Q9UM73); experiment: Ba/F3 cell proliferation assay, EML4-ALK wt (variant 1); type: cell-based; settings: 72 hours, CellTiter-Glo
# T8 construct: echinoderm microtubule-associated protein-like 4 (EML4) gene and the ALK tyrosine kinase domain; host or cells: Ba/F3 (RIKEN), retroviral pMSCV-puro; the other entry of the earlier key: EML4 (Q9HC35, Echinoderm microtubule-associated protein-like 4)
# T8 sequence (Q9UM73 with tags, fused parts or gaps): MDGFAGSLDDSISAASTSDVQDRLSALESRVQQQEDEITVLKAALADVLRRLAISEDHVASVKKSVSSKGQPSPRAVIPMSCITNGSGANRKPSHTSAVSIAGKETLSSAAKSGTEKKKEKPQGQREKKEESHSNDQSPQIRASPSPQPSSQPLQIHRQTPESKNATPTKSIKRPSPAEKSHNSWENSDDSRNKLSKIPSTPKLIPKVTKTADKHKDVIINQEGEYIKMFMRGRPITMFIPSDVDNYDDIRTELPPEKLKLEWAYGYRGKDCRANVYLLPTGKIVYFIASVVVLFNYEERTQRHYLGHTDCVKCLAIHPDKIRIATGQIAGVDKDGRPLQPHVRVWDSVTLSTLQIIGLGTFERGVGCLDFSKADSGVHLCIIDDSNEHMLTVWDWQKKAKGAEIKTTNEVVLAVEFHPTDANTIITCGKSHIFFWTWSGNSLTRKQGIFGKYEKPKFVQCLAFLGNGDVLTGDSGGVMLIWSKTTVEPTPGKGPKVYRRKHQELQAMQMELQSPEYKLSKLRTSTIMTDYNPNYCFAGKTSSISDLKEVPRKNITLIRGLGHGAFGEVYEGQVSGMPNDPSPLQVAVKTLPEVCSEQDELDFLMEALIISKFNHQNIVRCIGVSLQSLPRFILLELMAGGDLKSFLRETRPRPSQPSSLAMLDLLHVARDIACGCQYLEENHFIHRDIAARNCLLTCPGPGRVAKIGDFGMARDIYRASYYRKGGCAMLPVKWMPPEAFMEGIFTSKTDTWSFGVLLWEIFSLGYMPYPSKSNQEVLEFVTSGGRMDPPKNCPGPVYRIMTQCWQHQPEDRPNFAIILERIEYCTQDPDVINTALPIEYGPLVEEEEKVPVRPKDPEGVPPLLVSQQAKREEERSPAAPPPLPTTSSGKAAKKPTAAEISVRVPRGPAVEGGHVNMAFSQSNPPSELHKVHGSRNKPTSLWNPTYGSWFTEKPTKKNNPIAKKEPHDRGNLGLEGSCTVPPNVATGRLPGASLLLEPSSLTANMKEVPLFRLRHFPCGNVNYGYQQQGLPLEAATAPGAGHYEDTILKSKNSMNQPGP
# How it was run: (§4)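 Luminescence from CellTiter-Glo after 72 hours of compound exposure measured viability of IL-3-independent Ba/F3 cells carrying the retrovirally introduced fusion. Cells were plated at 1,000 per well one day before 3-fold serial dilutions were added. IC50 values came from four-parameter logistic regression.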
# [4] = molecular target: T9, Ba/F3 cells EML4-ALK L1196M/G1202R (variant 1) (Homo sapiens, UniProt Q9UM73, G1202R/L1196M); experiment: Ba/F3 cell proliferation assay, EML4-ALK L1196M/G1202R (variant 1); type: cell-based; settings: 72 hours, CellTiter-Glo
# T9 construct: echinoderm microtubule-associated protein-like 4 (EML4) gene and the ALK tyrosine kinase domain; host or cells: Ba/F3 (RIKEN), retroviral pMSCV-puro; the other entry of the earlier key: EML4 (Q9HC35, Echinoderm microtubule-associated protein-like 4)
# T9 sequence (Q9UM73 with tags, fused parts or gaps L1196M/G1202R): as the sequence (Q9UM73 with tags, fused parts or gaps) above, with L635M, G641R counted along it
# How it was run: as §4
# Ba/F3 cells TPM3-TRKA = molecular target: T10, Ba/F3 cells TPM3-TRKA (Homo sapiens, UniProt P04629); experiment: Ba/F3 cell proliferation assay, TPM3-TRKA; type: cell-based; settings: 72 hours, CellTiter-Glo, read-out: TPM3-NTRK1-wt IC50
# T10 construct: host or cells: Ba/F3 (RIKEN), retroviral pMSCV-puro; the other entry of the earlier key: TPM3 (P06753, Tropomyosin alpha-3 chain)
# T10 sequence (P04629 510-796 limits assumed): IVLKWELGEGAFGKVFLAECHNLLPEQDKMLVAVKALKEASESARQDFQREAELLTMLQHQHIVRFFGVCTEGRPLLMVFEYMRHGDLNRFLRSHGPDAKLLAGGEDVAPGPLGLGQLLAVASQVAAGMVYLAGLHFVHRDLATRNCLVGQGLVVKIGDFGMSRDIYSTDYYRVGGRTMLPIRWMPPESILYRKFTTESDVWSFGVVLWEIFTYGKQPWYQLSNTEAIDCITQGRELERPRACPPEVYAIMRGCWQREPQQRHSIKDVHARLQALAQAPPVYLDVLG
# How it was run: as §4
# [5] = tested on: TPM3-NTRK1-wt IC50 / primary target IC50 (e.g. CD74-ROS1-wt); experiment: TRKA selectivity in Ba/F3 cells (TRKA potency divided by primary target potency); type: cell-based; settings: for TPM3-NTRK1-wt/CD74-ROS1-G2032R selectivity ratio: TRKA potency / CD74-ROS1-G2032R potency; for TPM3-NTRK1-wt/CD74-ROS1-wt selectivity ratio: TRKA potency / CD74-ROS1-wt potency; for TPM3-NTRK1-wt/EML4-ALK-L1196M-G1202R selectivity ratio: TRKA potency / EML4-ALK-L1196M-G1202R potency; for TPM3-NTRK1-wt/EML4-ALK-wt selectivity ratio: TRKA potency / EML4-ALK-wt potency
# Method: TRKA selectivity was calculated by dividing a compound's TRKA potency by its primary target potency (e.g. TPM3-NTRK1-wt IC50/CD74-ROS1-wt IC50). Compound selectivity can be interpreted by binning ratio values: bin A for very high selectivity, ratio >30-fold; bin B for high selectivity, ratio >10-fold; bin C for moderate selectivity, ratio ≥1; and bin D for low selectivity, ratio <1. […] (nd=not determined).
# T1 sequence (Q9UM73 1116-1392 limits assumed): as the sequence (Q9UM73 1116-1392 L1196M/G1202R limits assumed) above, with M81L, R87G counted along it
Structure (SMILES),Ki (ALK-wt),Ki (ALK L1196M/G1202R),Ki (ROS1-wt),Ki (ROS1-G2032R),Ki (TRKA-wt),IC50 [1],IC50 [2],IC50 [3],IC50 [4],IC50 (Ba/F3 cells TPM3-TRKA),TPM3-NTRK1-wt/CD74-ROS1-G2032R selectivity ratio [5],TPM3-NTRK1-wt/CD74-ROS1-wt selectivity ratio [5],TPM3-NTRK1-wt/EML4-ALK-L1196M-G1202R selectivity ratio [5],TPM3-NTRK1-wt/EML4-ALK-wt selectivity ratio [5]
"CCc1snc2c1-c1cnc(N)c(c1)O[C@H](C)c1cc(F)ccc1-c1nn(C)nc1C2 [Example 87, (19R)-3-ethyl-16-fluoro-10,19-dimethyl-20-oxa-4-thia-5,9,10,11,23-pentaazapentacyclo[19.3.1.0^2,^6.0^8,^12.0^13,^18]pentacosa-1(24),2,5,8,11,13,15,17,21(25),22-decaen-22-amine]",< 50 nM,50 to 500 nM,< 50 nM,50 to 500 nM,> 500 nM,0.1 to 50 nM,0.1 to 50 nM,0.1 to 50 nM,> 500 nM,50 to 500 nM,"B (bin B for high selectivity, ratio >10-fold)","A (bin A for very high selectivity, ratio >30-fold)","D (bin D for low selectivity, ratio <1)","A (bin A for very high selectivity, ratio >30-fold)"
"CCn1nc2c(n1)-c1ccc(F)cc1[C@@H](C)Oc1cc(cnc1N)-c1c(cnn1CC)C2 [Example 88, (19R)-3,10-diethyl-16-fluoro-19-methyl-20-oxa-3,4,9,10,11,23-hexaazapentacyclo(19.3.1.0^2,^6.0^8,^12.0^13,^18]pentacosa-1(24),2(6),4,8,11,13,15,17,21(25),22-decaen-22-amine]",< 50 nM,< 50 nM,< 50 nM,< 50 nM,50 to 500 nM,0.1 to 50 nM,0.1 to 50 nM,0.1 to 50 nM,50 to 500 nM,50 to 500 nM,"A (bin A for very high selectivity, ratio >30-fold)","A (bin A for very high selectivity, ratio >30-fold)","C (bin C for moderate selectivity, ratio ≥1)","B (bin B for high selectivity, ratio >10-fold)"
"C[C@H]1Oc2cc(cnc2N)-c2c(c(Cl)nn2CC2CC2)Cc2nn(C)cc2-c2ccc(F)cc21 [Example 90, (19R)-5-chloro-3-(cyclopropylmethyl)-16-fluoro-10,19-dimethyl-20-oxa-3,4,9,10,23-pentaazapentacyclo[19.3.1.0^2,^6.0^8,^12.0^13,^18]pentacosa-1(24),2(6),4,8,11,13,15,17,21(25),22-decaen-22-amine]",< 50 nM,< 50 nM,< 50 nM,< 50 nM,> 500 nM,0.1 to 50 nM,0.1 to 50 nM,0.1 to 50 nM,50 to 500 nM,> 500 nM,"A (bin A for very high selectivity, ratio >30-fold)","A (bin A for very high selectivity, ratio >30-fold)","A (bin A for very high selectivity, ratio >30-fold)","A (bin A for very high selectivity, ratio >30-fold)"
"Cc1cc2n(n1)Cc1cnn(CCF)c1-c1cnc(N)c(c1)O[C@H](C)c1cc(F)ccc1-2 [Example 92, (19R)-16-fluoro-3-(2-fluoroethyl)-10,19-dimethyl-20-oxa-3,4,8,9,23-pentaazapentacyclo[19.3.1.0^2,^6.0^8,^12.0^13,^18]pentacosa-1(24),2(6),4,9,11,13,15,17,21(25),22-decaen-22-amine]",< 50 nM,< 50 nM,< 50 nM,< 50 nM,> 500 nM,0.1 to 50 nM,0.1 to 50 nM,0.1 to 50 nM,50 to 500 nM,50 to 500 nM,"A (bin A for very high selectivity, ratio >30-fold)","A (bin A for very high selectivity, ratio >30-fold)","C (bin C for moderate selectivity, ratio ≥1)","B (bin B for high selectivity, ratio >10-fold)"

# Now from value to compound, other results behind:
Ki (ALK-wt),Ki (ALK L1196M/G1202R),Ki (ROS1-wt),Ki (ROS1-G2032R),Ki (TRKA-wt),IC50 [1],IC50 [2],IC50 [3],IC50 [4],IC50 (Ba/F3 cells TPM3-TRKA),Structure (SMILES),TPM3-NTRK1-wt/CD74-ROS1-G2032R selectivity ratio [5],TPM3-NTRK1-wt/CD74-ROS1-wt selectivity ratio [5],TPM3-NTRK1-wt/EML4-ALK-L1196M-G1202R selectivity ratio [5],TPM3-NTRK1-wt/EML4-ALK-wt selectivity ratio [5]
< 50 nM,< 50 nM,< 50 nM,< 50 nM,> 500 nM,0.1 to 50 nM,0.1 to 50 nM,50 to 500 nM,50 to 500 nM,> 500 nM,"CCn1nc(Cl)c2c1-c1cnc(N)c(c1)O[C@H](C)c1cc(F)ccc1-c1oc(C)nc1C2 [Example 84, (19R)-5-chloro-3-ethyl-16-fluoro-10,19-dimethyl-11,20-dioxa-3,4,9,23-tetraazapentacyclo[19.3.1.0^2,^6.0^8,^12.0^13,^18]pentacosa-1(24),2(6),4,8(12),9,13,15,17,21(25),22-decaen-22-amine]","A (bin A for very high selectivity, ratio >30-fold)","A (bin A for very high selectivity, ratio >30-fold)","C (bin C for moderate selectivity, ratio ≥1)","B (bin B for high selectivity, ratio >10-fold)"
< 50 nM,< 50 nM,< 50 nM,< 50 nM,> 500 nM,0.1 to 50 nM,0.1 to 50 nM,0.1 to 50 nM,0.1 to 50 nM,> 500 nM,"C[C@H]1Oc2cc(cnc2N)-c2c(c(Cl)nn2CC2CC2)Cc2nn(C)nc2-c2ccc(F)cc21 [Example 85, (19R)-5-chloro-3-(cyclopropylmethyl)-16-fluoro-10,19-dimethyl-20-oxa-3,4,9,10,11,23-hexaazapentacyclo [19.3.1.0^2,^6.0^8,^12.0^13,^18]pentacosa-1(24),2(6),4,8,11,13,15,17,21(25),22-decaen-22-amine]","A (bin A for very high selectivity, ratio >30-fold)","A (bin A for very high selectivity, ratio >30-fold)","A (bin A for very high selectivity, ratio >30-fold)","A (bin A for very high selectivity, ratio >30-fold)"
